# Measurements reported in the supplement of paper PMC10307832.
# Experiments:
# Assay in all cases: relative viability (nuclei count vs DMSO), 5 days (fraction); higher = more cells survive
# NCI-H322M = tested on: NCI-H322M
# Outline: (§1)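 After 5 days of treatment, lung cancer cells in 1536-well plates were fixed and stained in a single step (final 0.05% Triton X-100, 1% formaldehyde, 1 ug/ml Hoechst) and their nuclei counted on 4× images. Treatment had been applied by pin tool the day after seeding as one drug alone or as a fixed anchor-drug dose with five library-drug doses (not always all listed) in √10 steps. Relative viability is the nuclei count of treated wells divided by that of vehicle wells, and values are medians of duplicate plates.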
# NCI-H1703 = tested on: NCI-H1703
# Outline: as §1
# NCI-H647 = tested on: NCI-H647
# Outline: as §1
# NCI-H2087 = tested on: NCI-H2087
# Outline: as §1
# PC-14 = tested on: PC-14
# Outline: as §1
# COR-L23 = tested on: COR-L23
# Outline: as §1
# LCLC-97TM1 = tested on: LCLC-97TM1
# Outline: as §1
# NCI-H460 = tested on: NCI-H460
# Outline: as §1
# A-427 = tested on: A-427
# Outline: as §1
# NCI-H3122 = tested on: NCI-H3122
# Outline: as §1
# NCI-H2085 = tested on: NCI-H2085
# Outline: as §1
# NCI-H1437 = tested on: NCI-H1437
# Outline: as §1
# NCI-H1666 = tested on: NCI-H1666
# Outline: as §1
# NCI-H661 = tested on: NCI-H661
# Outline: as §1
# NCI-H1563 = tested on: NCI-H1563
# Outline: as §1
# NCI-H1915 = tested on: NCI-H1915
# Outline: as §1
# EKVX = tested on: EKVX
# Outline: as §1
# A549 = tested on: A549
# Outline: as §1
# NCI-H2126 = tested on: NCI-H2126
# Outline: as §1
# ABC-1 = tested on: ABC-1
# Outline: as §1
# NCI-H727 = tested on: NCI-H727
# Outline: as §1
# LK-2 = tested on: LK-2
# Outline: as §1
# LXF-289 = tested on: LXF-289
# Outline: as §1
# LC-2-ad = tested on: LC-2-ad
# Outline: as §1
# NCI-H1792 = tested on: NCI-H1792
# Outline: as §1
structure (smiles),measurement,setting,value
Nc1cccc2c1CN(C1CCC(=O)NC1=O)C2=O (stereo not given) [Lenalidomide] + CS(=O)(=O)N1CCN(Cc2cc3nc(-c4cccc5[nH]ncc45)nc(N4CCOCC4)c3s2)CC1 [Pictilisib] (partner 1 µM),relative viability,NCI-H322M; first compound 0.253 µM,0.511
same,relative viability,NCI-H322M; first compound 0.8 µM,0.596
same,relative viability,NCI-H322M; first compound 2.53 µM,0.546
same,relative viability,NCI-H322M; first compound 8 µM,0.49
same,relative viability,NCI-H1703; first compound 0.253 µM,0.245
same,relative viability,NCI-H1703; first compound 0.8 µM,0.27
same,relative viability,NCI-H1703; first compound 2.53 µM,0.287
same,relative viability,NCI-H1703; first compound 8 µM,0.267
same,relative viability,NCI-H647; first compound 0.253 µM,0.417
same,relative viability,NCI-H647; first compound 2.53 µM,0.535
same,relative viability,NCI-H647; first compound 8 µM,0.281
same,relative viability,NCI-H2087; first compound 0.253 µM,0.982
same,relative viability,NCI-H2087; first compound 0.8 µM,0.436
same,relative viability,NCI-H2087; first compound 2.53 µM,0.972
same,relative viability,NCI-H2087; first compound 8 µM,0.732
same,relative viability,PC-14; first compound 0.253 µM,0.691
same,relative viability,PC-14; first compound 0.8 µM,0.618
same,relative viability,PC-14; first compound 2.53 µM,0.719
same,relative viability,PC-14; first compound 8 µM,0.713
same,relative viability,COR-L23; first compound 0.253 µM,0.778
same,relative viability,COR-L23; first compound 0.8 µM,0.7
same,relative viability,COR-L23; first compound 2.53 µM,0.924
same,relative viability,COR-L23; first compound 8 µM,0.64
same,relative viability,LCLC-97TM1; first compound 0.8 µM,0.182
same,relative viability,LCLC-97TM1; first compound 2.53 µM,0.261
same,relative viability,LCLC-97TM1; first compound 8 µM,0.165
same,relative viability,NCI-H460; first compound 0.253 µM,0.363
same,relative viability,NCI-H460; first compound 0.8 µM,0.263
same,relative viability,NCI-H460; first compound 2.53 µM,0.25
same,relative viability,NCI-H460; first compound 8 µM,0.264
same,relative viability,A-427; first compound 0.253 µM,0.796
same,relative viability,A-427; first compound 2.53 µM,0.744
same,relative viability,A-427; first compound 8 µM,0.676
same,relative viability,NCI-H3122; first compound 0.253 µM,0.653
same,relative viability,NCI-H3122; first compound 0.8 µM,0.733
same,relative viability,NCI-H3122; first compound 2.53 µM,0.589
same,relative viability,NCI-H3122; first compound 8 µM,0.414
same,relative viability,NCI-H2085; first compound 0.253 µM,0.451
same,relative viability,NCI-H2085; first compound 0.8 µM,0.409
same,relative viability,NCI-H2085; first compound 2.53 µM,0.428
same,relative viability,NCI-H2085; first compound 8 µM,0.371
same,relative viability,NCI-H1437; first compound 0.253 µM,0.547
same,relative viability,NCI-H1437; first compound 0.8 µM,0.591
same,relative viability,NCI-H1437; first compound 2.53 µM,0.592
same,relative viability,NCI-H1437; first compound 8 µM,0.344
same,relative viability,NCI-H1666; first compound 0.253 µM,0.471
same,relative viability,NCI-H1666; first compound 0.8 µM,0.372
same,relative viability,NCI-H1666; first compound 2.53 µM,0.495
same,relative viability,NCI-H1666; first compound 8 µM,0.488
same,relative viability,NCI-H661; first compound 0.253 µM,0.59
same,relative viability,NCI-H661; first compound 0.8 µM,0.369
same,relative viability,NCI-H661; first compound 2.53 µM,0.44
same,relative viability,NCI-H661; first compound 8 µM,0.329
same,relative viability,NCI-H1563; first compound 0.253 µM,0.713
same,relative viability,NCI-H1563; first compound 0.8 µM,0.667
same,relative viability,NCI-H1563; first compound 2.53 µM,0.685
same,relative viability,NCI-H1563; first compound 8 µM,0.638
same,relative viability,NCI-H1915; first compound 0.253 µM,0.9
same,relative viability,NCI-H1915; first compound 0.8 µM,0.793
same,relative viability,NCI-H1915; first compound 2.53 µM,1
same,relative viability,NCI-H1915; first compound 8 µM,0.857
same,relative viability,EKVX; first compound 0.253 µM,0.456
same,relative viability,EKVX; first compound 0.8 µM,0.39
same,relative viability,EKVX; first compound 2.53 µM,0.401
same,relative viability,EKVX; first compound 8 µM,0.366
same,relative viability,A549; first compound 0.253 µM,0.491
same,relative viability,A549; first compound 0.8 µM,0.448
same,relative viability,A549; first compound 2.53 µM,0.553
same,relative viability,A549; first compound 8 µM,0.52
same,relative viability,NCI-H2126; first compound 0.253 µM,0.501
same,relative viability,NCI-H2126; first compound 0.8 µM,0.423
same,relative viability,NCI-H2126; first compound 2.53 µM,0.458
same,relative viability,NCI-H2126; first compound 8 µM,0.421
same,relative viability,ABC-1; first compound 0.253 µM,0.724
same,relative viability,ABC-1; first compound 0.8 µM,0.626
same,relative viability,ABC-1; first compound 2.53 µM,0.719
same,relative viability,ABC-1; first compound 8 µM,0.629
same,relative viability,NCI-H727; first compound 0.253 µM,0.418
same,relative viability,NCI-H727; first compound 2.53 µM,0.44
same,relative viability,NCI-H727; first compound 8 µM,0.306
same,relative viability,LK-2; first compound 0.253 µM,0.602
same,relative viability,LK-2; first compound 2.53 µM,0.599
same,relative viability,LK-2; first compound 8 µM,0.538
same,relative viability,LXF-289; first compound 0.253 µM,0.835
same,relative viability,LXF-289; first compound 0.8 µM,0.827
same,relative viability,LXF-289; first compound 2.53 µM,0.864
same,relative viability,LXF-289; first compound 8 µM,0.845
same,relative viability,LC-2-ad; first compound 0.253 µM,0.434
same,relative viability,LC-2-ad; first compound 0.8 µM,0.487
same,relative viability,LC-2-ad; first compound 2.53 µM,0.467
same,relative viability,LC-2-ad; first compound 8 µM,0.538
same,relative viability,NCI-H1792; first compound 0.253 µM,0.298
same,relative viability,NCI-H1792; first compound 0.8 µM,0.192
same,relative viability,NCI-H1792; first compound 2.53 µM,0.264
same,relative viability,NCI-H1792; first compound 8 µM,0.184
